Source: patent US20120128705A1, “C6ORF167 PEPTIDES AND VACCINES CONTAINING THE SAME” (OncoTherapy Science, Inc., priority 2009, published 2012)
Ends that are not written are not given here.

How the values were obtained:
[1] = test system: COS7 cells transfected with C6orf167 and HLA-A*0201; assay: Specific CTL activity against target cells exogenously expressing C6orf167 and HLA-A*0201; type: cell-based, African green monkey; settings: for Specific CTL activity against control COS7 cells: COS7 transfected with either full length C6orf167 or HLA-A*0201 alone; for Specific CTL activity against COS7 cells expressing both C6orf167 and HLA-A*0201: CTL line (SEQ ID NO: 79) or CTL clone (SEQ ID NO: 114) as effector cells
Excerpt: The cDNA encoding an open reading frame of target genes or HLA-A*0201 was amplified by PCR. The PCR-amplified product was cloned into pCAGGS vector and pIRES vector (Clontech Laboratories, Inc., Cat. No. 631605). The plasmids were transfected into COS7, which is the target genes and HLA-A*0201-null cell line, using lipofectamine 2000 (Invitrogen) according to the manufacturer's recommended procedures. After 2 days from transfection, the transfected cells were harvested with versene (Invitrogen) and used as the target cells (5×10^4 cells/well) for CTL activity assay.
The established CTL lines and clones raised against each peptide were examined for the ability to recognize target cells that endogenously express C6orf167 and HLA-A*0201 molecule. Specific CTL activity against COS7 cells which transfected with both the full length of C6orf167 and HLA-A*0201 gene (a specific model for the target cells that exogenously express C6orf167 and HLA-A*0201 gene) was tested by using the CTL lines and clones raised by corresponding peptide as the effector cells. COS7 cells transfected with either full length of C6orf167 or HLA-A*0201 were prepared as the controls.

peptide-pulsed T2 [2] = assay: IFN-gamma ELISA assay of CTL lines (HLA-A*0201); type: cell-based, human; settings: target cells pulsed with corresponding peptide vs without peptide pulse
Description: CTLs were expanded in culture using the method similar to the one described by Riddell et al. (Walter E A et al., N Engl J Med 1995 Oct. 19, 333(16): 1038-44; Riddell S R et al., Nat Med 1996 February, 2(2): 216-23). A total of 5×10^4 CTLs were suspended in 25 ml of AIM-V/5% AS medium with 2 kinds of human B-lymphoblastoid cell lines, inactivated by Mitomycin C, in the presence of 40 ng/ml of anti-CD3 monoclonal antibody (Pharmingen). One day after initiating the cultures, 120 IU/ml of IL-2 were added to the cultures. The cultures were fed with fresh AIM-V/5% AS medium containing 30 IU/ml of IL-2 on days 5, 8 and 11 (Tanaka H et al., Br J Cancer 2001 Jan. 5, 84(1): 94-9; Umano Y et al., Br J Cancer 2001 Apr. 20, 84(8): 1052-7; Uchida N et al., Clin Cancer Res 2004 Dec. 15, 10(24): 8577-86; Suda T et al., Cancer Sci 2006 May, 97(5): 411-9; Watanabe T et al., Cancer Sci 2005 August, 96(8): 498-506).
(§1) To examine specific CTL activity, interferon (IFN)-gamma enzyme-linked immunospot (ELISPOT) assay and IFN-gamma enzyme-linked immunosorbent assay (ELISA) were performed. Specifically, peptide-pulsed T2 (1×10^4/well) was prepared as stimulator cells. Cultured cells in 48 wells were used as responder cells. IFN-gamma ELISPOT assay and IFN-gamma ELISA assay were performed under manufacture procedure.

peptide-pulsed T2 [3] = assay: IFN-gamma ELISPOT assay on CTLs induced with peptide (HLA-A*0201); type: cell-based, human; settings: CTLs from HLA-A*0201 positive donor, 3 rounds of stimulation, day 21; vs control wells without peptide
Excerpt: Monocyte-derived dendritic cells (DCs) were used as antigen-presenting cells to induce cytotoxic T lymphocyte (CTL) responses against peptides presented on human leukocyte antigen (HLA). DCs were generated in vitro as described elsewhere (Nakahara S et al., Cancer Res 2003 Jul. 15, 63(14): 4112-8). Specifically, peripheral blood mononuclear cells (PBMCs) isolated from a normal volunteer (HLA-A*0201 positive) by Ficoll-Plaque (Pharmacia) solution were separated by adherence to a plastic tissue culture dish (Becton Dickinson) so as to enrich them as the monocyte fraction. The monocyte-enriched population was cultured in the presence of 1,000 U/ml of granulocyte-macrophage colony-stimulating factor (R&D System) and 1,000 U/ml of interleukin (IL)-4 (R&D System) in AIM-V Medium (Invitrogen) containing 2% heat-inactivated autologous serum (AS). After 7 days of culture, the cytokine-induced DCs were pulsed with 20 micro-g/ml of each of the synthesized peptides in the presence of 3 micro-g/ml of beta 2-microglobulin for 3 hrs at 37 degrees C. in AIM-V Medium. The generated cells appeared to express DC-associated molecules, such as CD80, CD83, CD86 and HLA class II, on their cell surfaces (data not shown). These peptide-pulsed DCs were then inactivated by X-irradiated (20 Gy) and mixed at a 1:20 ratio with autologous CD8+ T cells, obtained by positive selection with CD8 positive Isolation Kit (Dynal). These cultures were set up in 48-well plates (Corning); each well contained 1.5×10^4 peptide-pulsed DCs, 3×10^5 CD8+ T cells and 10 ng/ml of IL-7 (R&D System) in 0.5 ml of AIM-V/2% AS medium. Three days later, these cultures were supplemented with IL-2 (CHIRON) to a final concentration of 20 IU/ml. On days 7 and 14, the T cells were further stimulated with the autologous peptide-pulsed DCs. The DCs were prepared each time by the same way described above. CTL was tested against peptide-pulsed T2 cells after the 3rd round of peptide stimulation on day 21 (Tanaka H et al., Br J Cancer 2001 Jan. 5, 84(1): 94-9; Umano Y et al., Br J Cancer 2001 Apr. 20, 84(8): 1052-7; Uchida N et al., Clin Cancer Res 2004 Dec. 15, 10(24): 8577-86; Suda T et al., Cancer Sci 2006 May, 97(5): 411-9; Watanabe T et al., Cancer Sci 2005 August, 96(8): 498-506).
as §1

peptide-pulsed T2 [4] = assay: IFN-gamma ELISA assay of CTL clones (HLA-A*0201); type: cell-based, human; settings: clones by limiting dilution; target cells pulsed with peptide
Description: The dilutions were made to have 0.3, 1, and 3 CTLs/well in 96 round-bottomed micro titer plate (Nalge Nunc International). CTLs were cultured with 1×10^4 cells/well of 2 kinds of human B-lymphoblastoid cell lines, 30 ng/ml of anti-CD3 antibody, and 125 U/ml of IL-2 in a total of 150 micro-l/well of AIM-V Medium containing 5% AS. 50 micro-1/well of IL-2 were added to the medium 10 days later so to reach a final concentration of 125 U/ml IL-2. CTL activity was tested on the 14th day, and CTL clones were expanded using the same method as described above (Uchida N et al., Clin Cancer Res 2004 Dec. 15, 10(24): 8577-86; Suda T et al., Cancer Sci 2006 May, 97(5): 411-9; Watanabe T et al., Cancer Sci 2005 August, 96(8): 498-506).
as §1

Substance	Specific CTL activity against control COS7 cells [1]	Specific CTL activity against COS7 cells expressing both C6orf167 and HLA-A*0201 [1]	IFN-gamma production of CTL lines by ELISA (peptide-pulsed T2 [2])	Peptide specific CTL activity: IFN-gamma production by ELISPOT (peptide-pulsed T2 [3])	IFN-gamma production of CTL clones by ELISA (peptide-pulsed T2 [4])
TLLCDLISL [SEQ ID NO: 79]	no significant specific CTL activity	potent CTL activity	potent IFN-gamma production	potent IFN-gamma production	Potent IFN-gamma productions
TLLSiYIDGV (TLLSIYIDGV; not fully specified; printed as TLLSiYIDGV) [SEQ ID NO: 114]	no significant specific CTL activity	potent CTL activity	potent IFN-gamma production	potent IFN-gamma production	Potent IFN-gamma productions
